Measurements published in US7605163B2, “Benzoyl-piperazine derivatives” (Hoffmann-La Roche Inc., priority 2003, dated 2009).
pIC50: −log10 of the molar value.

The compounds below were run against T1, mGlyT-1b (Mus musculus, UniProt P28571) (assay: Glycine Uptake Inhibition Assay (mGlyT-1b)). Details: [3H]-glycine uptake inhibition at GlyT-1, Flp-in-CHO cells transfected with mGlyT-1b cDNA.
T1 construct: host or cells: Flp-in-CHO cells
T1 sequence (P28571 1-651 isoform P28571-2): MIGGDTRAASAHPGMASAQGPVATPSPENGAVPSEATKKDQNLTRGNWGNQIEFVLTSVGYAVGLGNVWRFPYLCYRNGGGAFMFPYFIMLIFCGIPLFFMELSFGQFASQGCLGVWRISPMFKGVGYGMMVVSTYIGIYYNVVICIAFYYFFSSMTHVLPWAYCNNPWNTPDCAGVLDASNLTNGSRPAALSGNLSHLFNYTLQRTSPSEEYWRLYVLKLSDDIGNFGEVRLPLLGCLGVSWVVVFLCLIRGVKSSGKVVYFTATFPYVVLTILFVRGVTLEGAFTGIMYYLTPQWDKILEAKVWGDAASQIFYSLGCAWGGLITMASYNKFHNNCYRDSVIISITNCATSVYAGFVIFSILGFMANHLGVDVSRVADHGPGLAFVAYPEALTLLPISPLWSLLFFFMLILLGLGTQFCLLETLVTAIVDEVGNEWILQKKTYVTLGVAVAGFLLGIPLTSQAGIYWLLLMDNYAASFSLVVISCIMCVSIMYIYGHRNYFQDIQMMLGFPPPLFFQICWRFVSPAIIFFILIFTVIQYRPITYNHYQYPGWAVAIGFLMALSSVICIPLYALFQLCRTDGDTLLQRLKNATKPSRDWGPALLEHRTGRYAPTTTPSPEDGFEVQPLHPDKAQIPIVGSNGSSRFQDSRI
Format: cell-based
Experimental: DMEM complete medium: Nutrient mixture F-12 (Gibco Life-technologies), fetal bovine serum (FBS) 5%, (Gibco life technologies), Penicillin/Streptomycin 1% (Gibco life technologies), Hygromycin 0.6 mg/ml (Gibco life technologies), Glutamine 1 mM Gibco life technologies)
Uptake buffer (UB): 150 mM NaCl, 10 mM Hepes-Tris, pH 7.4, 1 mM CaCl2, 2.5 mM KCl, 2.5 mM MgSO4, 10 mM (+) D-glucose. Flp-in™-CHO (Invitrogen Cat n^o R758-07) cells stably transfected with mGlyT1b cDNA.
Glycine Uptake Inhibition Assay (mGlyT-1b)
On day 1 mammalian cells, (Flp-in™-CHO), transfected with mGlyT-1b cDNA, were plated at the density of 40,000 cells/well in complete F-12 medium, without hygromycin in 96-well culture plates. On day 2, the medium was aspirated, and the cells were washed twice with uptake buffer (UB). The cells were then incubated for 20 min at 22° C. with either (i) no potential competitor, (ii) 10 mM non-radioactive glycine, (iii) a concentration of a potential inhibitor. A range of concentrations of the potential inhibitor was used to generate data for calculating the concentration of inhibitor resulting in 50% of the effect (e.g. IC50, the concentration of the competitor inhibiting glycine uptake of 50%).
A solution was then immediately added containing [^3H]-glycine 60 nM (11-16 Ci/mmol) and 25 μM non-radioactive glycine. The plates were incubated with gentle shaking, and the reaction was stopped by aspiration of the mixture and washing (three times) with ice-cold UB. The cells were lysed with scintillation liquid, shaken 3 hours and the radioactivity in the cells counted using a scintillation counter.

Row | Structure (SMILES) | pIC50
1 | CC(Oc1ccc(S(C)(=O)=O)cc1C(=O)N1CCN(c2ncc(C(F)(F)F)cc2Cl)CC1)C(F)(F)F (racemic) [compound 407] | 7.57
2 | CNS(=O)(=O)c1ccc(OCC2CC2)c(C(=O)N2CCN(c3ccc(C(C)=O)cc3F)CC2)c1 [compound 519] | 7.46
3 | CCC(C)Oc1ccc(S(C)(=O)=O)cc1C(=O)N1CCN(c2ccc(C(F)(F)F)cc2F)CC1 (racemic) [compound 324] | 7.41
4 | CC(=O)c1ccc(N2CCN(C(=O)c3cc(S(C)(=O)=O)ccc3OCC3CC3)CC2)cc1F [compound 369] | 7.49
5 | CC(Oc1ccc(S(C)(=O)=O)cc1C(=O)N1CCN(c2cccc(C(F)(F)F)n2)CC1)C(F)(F)F (racemic) [compound 459] | 7.40
6 | CC(C)Oc1ccc(S(C)(=O)=O)cc1C(=O)N1CCN(c2ncc(C(F)(F)F)cc2F)CC1 [compound 437] | 7.59
7 | CS(=O)(=O)c1ccc(OC2CCCC2)c(C(=O)N2CCN(c3ccc(C(F)(F)F)cn3)CC2)c1 [compound 412] | 7.48
8 | CC(C)(C)COc1ccc(S(C)(=O)=O)cc1C(=O)N1CCN(c2ccc(C(F)(F)F)cc2)CC1 [compound 293] | 7.47
9 | O=C(c1cc([N+](=O)[O-])ccc1OCC(F)(F)C(F)(F)F)N1CCN(c2ccc(C(F)(F)F)cc2)CC1 [Example 100, [5-Nitro-2-(2,2,3,3,3-pentafluoro-propoxy)-phenyl]-[4-(4-trifluoromethyl-phenyl)-piperazin-1-yl]-methanone] | 7.70
10 | CS(=O)(=O)c1ccc(OC2CCCC2)c(C(=O)N2CCN(c3c(F)cc(C#N)cc3F)CC2)c1 [compound 167] | 7.80
11 | CC(C)Oc1ccc(S(C)(=O)=O)cc1C(=O)N1CCN(c2ccc(S(=O)(=O)C3CCCC3)cc2F)CC1 [compound 571] | 7.30
12 | CC(Oc1ccc(S(C)(=O)=O)cc1C(=O)N1CCN(c2ccc(C(F)(F)F)cc2)CC1)C1CC1 (racemic) [Example 104, Rac-[2-(1-Cyclopropyl-ethoxy)-5-methanesulfonyl-phenyl]-[4-(4-trifluoromethyl-phenyl)-piperazin-1-yl]-methanone] | 7.34
13 | CCC(C)Oc1ccc(S(C)(=O)=O)cc1C(=O)N1CCN(c2ccc(C#N)cc2F)CC1 (racemic) [compound 321] | 7.74
14 | CS(=O)(=O)c1ccc(OC2CCC2)c(C(=O)N2CCN(c3ccc(S(=O)(=O)C4CC4)cc3F)CC2)c1 [compound 576] | 7.41
15 | CS(=O)(=O)c1ccc(N2CCN(C(=O)c3cc(S(C)(=O)=O)ccc3OC3CCCCC3)CC2)c(F)c1 [compound 288] | 7.60
16 | CCS(=O)(=O)c1ccc(N2CCN(C(=O)c3cc(S(C)(=O)=O)ccc3OC3CCCC3)CC2)c(F)c1 [compound 563] | 7.37
17 | CCC(C)Oc1ccc(S(C)(=O)=O)cc1C(=O)N1CCN(c2ccc(S(=O)(=O)CC)cc2F)CC1 (racemic) [compound 568] | 7.36
18 | CS(=O)(=O)c1ccc(OCC2CCC2)c(C(=O)N2CCN(c3cc(F)c(C#N)c(F)c3)CC2)c1 [compound 148] | 7.44
19 | CNS(=O)(=O)c1ccc(OCC2CCC2)c(C(=O)N2CCN(c3ccc(C(F)(F)F)cc3)CC2)c1 [compound 530] | 8.24
20 | O=C(c1cc([N+](=O)[O-])ccc1OCCCl)N1CCN(c2ccc(C(F)(F)F)cc2)CC1 [Example 92, [2-(2-Chloro-ethoxy)-5-nitro-phenyl]-[4-(4-trifluoromethyl-phenyl)-piperazin-1-yl]-methanone] | 7.30
21 | CC(C)COc1ccc(S(C)(=O)=O)cc1C(=O)N1CCN(c2ccc(C#N)c(F)c2F)CC1 [compound 128] | 7.70
22 | CC(Oc1ccc(S(C)(=O)=O)cc1C(=O)N1CCN(c2ccc(C#N)cc2F)CC1)C(F)(F)F (racemic) [compound 299] | 7.36

Row | Structure (SMILES) | pIC50
23 | CS(=O)(=O)c1ccc(OCC2CCC2)c(C(=O)N2CCN(c3c(F)cc(C#N)cc3F)CC2)c1 [compound 147] | 7.51
24 | CC(C)(Oc1ccc(S(C)(=O)=O)cc1C(=O)N1CCN(c2ncc(C(F)(F)F)cc2F)CC1)C(F)(F)F [compound 637] | 7.33
25 | CNS(=O)(=O)c1ccc(OCC(C)(C)C)c(C(=O)N2CCN(c3ccc(C(F)(F)F)cc3)CC2)c1 [compound 525] | 7.68
26 | CC(=O)c1ccc(N2CCN(C(=O)c3cc(S(C)(=O)=O)ccc3OCC(C)C)CC2)cc1F [compound 372] | 8.22
27 | CC(=O)c1ccc(N2CCN(C(=O)c3cc(S(C)(=O)=O)ccc3OCCC(F)(F)F)CC2)c(F)c1 [compound 118] | 7.62
28 | CC(Oc1ccc(S(C)(=O)=O)cc1C(=O)N1CCN(c2ccc(C(F)(F)F)cn2)CC1)C(F)(F)F (single isomer, unassigned) [compound 464] | 7.70
29 | CS(=O)(=O)c1ccc(OC2CCCCC2)c(C(=O)N2CCN(c3ccc(C#N)cc3)CC2)c1 [compound 282] | 7.57
30 | CS(=O)(=O)c1ccc(OCC2CCC2)c(C(=O)N2CCN(c3ccc(C#N)c(F)c3)CC2)c1 [compound 137] | 7.57
31 | CNS(=O)(=O)c1ccc(OC2CCC2)c(C(=O)N2CCN(c3ccc(C(F)(F)F)cc3)CC2)c1 [compound 528] | 7.82
32 | CC(Oc1ccc(S(C)(=O)=O)cc1C(=O)N1CCN(c2ccc(C(F)(F)F)cc2)CC1)C(F)(F)F (centres unmarked) [compound 301] | 7.52
33 | CC(C)(C)Oc1ccc(S(C)(=O)=O)cc1C(=O)N1CCN(c2c(F)cc(S(C)(=O)=O)cc2F)CC1 [compound 250] | 7.21
34 | CS(=O)(=O)c1ccc(OCC(F)(F)C(F)F)c(C(=O)N2CCN(c3c(F)cc(C#N)cc3F)CC2)c1 [compound 215] | 7.31
35 | COCCOc1ccc([N+](=O)[O-])cc1C(=O)N1CCN(c2ccc(C(C)=O)cc2F)CC1 [Example 54, 1-(3-Fluoro-4-{4-[2-(2-methoxy-ethoxy)-5-nitro-benzoyl]-piperazin-1-yl}-phenyl)-ethanone] | 7.30
36 | O=C(c1cc([N+](=O)[O-])ccc1OC1CC2CCC1C2)N1CCN(c2ccc(C(F)(F)F)cc2)CC1 (centres unmarked) [Example 88, [2-(Bicyclo[2.2.1]hept-2-yloxy)-5-nitro-phenyl]-[4-(4-trifluoromethyl-phenyl)-piperazin-1-yl]-methanone] | 8.15
37 | CNS(=O)(=O)c1ccc(OCC2CCC2)c(C(=O)N2CCN(c3ccc(C#N)cc3)CC2)c1 [compound 494] | 7.52
38 | CS(=O)(=O)c1ccc(OC2CCCCC2)c(C(=O)N2CCN(c3ccc(C(F)(F)F)c(F)c3)CC2)c1 [compound 287] | 7.48
39 | CC(C)Oc1ccc(S(C)(=O)=O)cc1C(=O)N1CCN(c2ccc(C(F)(F)F)cc2F)CC1 [Example 5, [4-(2-fluoro-4-trifluoromethyl-phenyl)-piperazin-1-yl]-(2-isopropoxy-5-methanesulfonyl-phenyl)-methanone] | 7.92
40 | CNS(=O)(=O)c1ccc(OCC(C)(C)C)c(C(=O)N2CCN(c3ccc(C(C)=O)cc3F)CC2)c1 [compound 515] | 7.40
41 | CC(Oc1ccc(S(C)(=O)=O)cc1C(=O)N1CCN(c2ccc(C(F)(F)F)cc2)CC1)C(F)(F)F (single isomer, unassigned) [compound 469] | 7.70
42 | CNS(=O)(=O)c1ccc(OC(C)C)c(C(=O)N2CCN(c3ccc(C#N)cc3F)CC2)c1 [compound 506] | 7.34
43 | CS(=O)(=O)c1ccc(OCC(F)(F)C(F)F)c(C(=O)N2CCN(c3ccc(C#N)c(F)c3F)CC2)c1 [compound 213] | 7.68
44 | CC(C)COc1ccc(S(C)(=O)=O)cc1C(=O)N1CCN(c2ccc(C(F)(F)F)cc2C#N)CC1 [compound 375] | 7.46
